{"source": "patent US20050197350A1", "about": "“Novel quinoline, tetrahydroquinazoline, and pyrimidine derivatives and methods of treatment related to the use thereof” (TAISHO PHARMACEUTICAL CO., LTD., priority 2003, published 2005)", "system": "MCH receptors", "assay": "MCH receptor activity class (method not given)", "key": {"[1]": {"settings": "class by percent of control at 10^−7 M or IC50"}, "[2]": {"settings": "class by percent of control at 10^-7 M or IC50"}, "[3]": {"settings": "class 1-3 by percent of control at 10^-7 M or IC50"}, "[4]": {"settings": "activity class per percent of control at 10^-7 M or IC50"}, "[5]": {"settings": "MCH receptor, class by percent of control at 10^-7 M or IC50"}}, "data": [{"molecule": "Cc1cnc(N[C@H]2CC[C@@H](NC(=O)c3cccnc3Oc3ccccc3Cl)CC2)nc1N(C)C", "note": "[compound 2892, 2-(2-chlorophenoxy)-N-(cis-4-{[4-(dimethylamino)-5-methylpyrimidin-2-yl]amino}cyclohexyl)nicotinamide]", "values": [{"measurement": "class", "setting": "[1]", "result": "1 (Class 1: The value of percent of control at 10^−7 M was less than 40% or the value of IC50 was less than 50 nM.)"}]}, {"molecule": "CN(C)c1nc(N[C@H]2CC[C@@H](NC(=O)Cc3ccccc3I)CC2)nc2c1CCCC2", "note": "[compound 957]", "values": [{"measurement": "class", "setting": "[2]", "result": "2 (Class 2: The value of percent of control at 10^−7 M was from 40% to 60% or the value of IC′50 was from 50 nM to 200 nM.)"}]}, {"molecule": "CN(C)c1nc(N[C@H]2CC[C@@H](NC(=O)c3ccc(F)c(Cl)c3F)CC2)nc2c1CCCC2", "note": "[compound 498]", "values": [{"measurement": "class", "setting": "[3]", "result": "3 (Class 3 The value of percent of control at 10^−7 M was more than 60% or the value of IC50 was more than 200 nM.)"}]}, {"molecule": "COc1cc(COC(=O)NC[C@H]2CC[C@@H](Nc3cc(N(C)C)c4ccccc4n3)CC2)c([N+](=O)[O-])cc1OC", "note": "[compound 1561]", "values": [{"measurement": "class", "setting": "activity class 1-3: percent of control at 10^-7 M or IC50", "result": "3 (Class 3 The value of percent of control at 10^−7 M was more than 60% or the value of IC50 was more than 200 nM.)"}]}, {"molecule": "CCOc1ccc(C(=O)CC(C(=O)NC[C@H]2CC[C@@H](Nc3cc(N(C)C)c4ccccc4n3)CC2)C2C(=O)N(c3ccccc3)N=C2C)cc1", "note": "(relative stereo) [compound 807]", "values": [{"measurement": "class", "setting": "[2]", "result": "3 (Class 3 The value of percent of control at 10^−7 M was more than 60% or the value of IC50 was more than 200 nM.)"}]}, {"molecule": "CN(C)c1nc(N[C@H]2CC[C@@H](CNC(=O)Nc3ccc(C#N)cc3)CC2)nc2c1CCCC2", "note": "[compound 2480]", "values": [{"measurement": "class", "setting": "MCH receptor activity class 1-3 (percent of control at 10^-7 M or IC50)", "result": "3 (Class 3 The value of percent of control at 10^−7 M was more than 60% or the value of IC50 was more than 200 nM.)"}]}, {"molecule": "CN(C)c1cc(N[C@H]2CC[C@@H](CNCc3c[nH]c4ccccc34)CC2)nc2ccccc12", "note": "[compound 1124]", "values": [{"measurement": "class", "setting": "[4]", "result": "3 (Class 3 The value of percent of control at 10^−7 M was more than 60% or the value of IC50 was more than 200 nM.)"}]}, {"molecule": "Cc1cc(Br)cc(C)c1NC(=O)NC[C@H]1CC[C@@H](Nc2nc3c(c(N(C)C)n2)CCCC3)CC1", "note": "[compound 2482, N-(4-bromo-2,6-dimethylphenyl)-N′-[(cis-4-{[4-(dimethylamino)-5,6,7,8-tetrahydroquinazolin-2-yl]amino}cyclohexyl)methyl]urea]", "values": [{"measurement": "class", "setting": "[2]", "result": "1 (Class 1: The value of percent of control at 10^−7 M was less than 40% or the value of IC50 was less than 50 nM.)"}]}, {"molecule": "Cc1cccc(C(=O)N[C@H]2CC[C@@H](Nc3nc4c(c(N(C)C)n3)CCCC4)CC2)c1N", "note": "[compound 1058]", "values": [{"measurement": "class", "setting": "[4]", "result": "3 (Class 3 The value of percent of control at 10^−7 M was more than 60% or the value of IC50 was more than 200 nM.)"}]}, {"molecule": "CN(C)c1nc(N[C@H]2CC[C@@H](CNC(=O)c3ccc([N+](=O)[O-])s3)CC2)nc2c1CCCC2", "note": "[compound 1075]", "values": [{"measurement": "class", "setting": "[4]", "result": "3 (Class 3 The value of percent of control at 10^−7 M was more than 60% or the value of IC50 was more than 200 nM.)"}]}, {"molecule": "CN(C)c1ccnc(N[C@H]2CC[C@@H](NC(=O)c3ccc(I)o3)CC2)n1", "note": "[compound 819, N-(cis-4-{[4-(dimethylamino)pyrimidin-2-yl]amino}cyclohexyl)-5-iodo-2-furamide]", "values": [{"measurement": "class", "setting": "[2]", "result": "2 (Class 2: The value of percent of control at 10^−7 M was from 40% to 60% or the value of IC′50 was from 50 nM to 200 nM.)"}]}, {"molecule": "CN(C)c1cc(N[C@H]2CC[C@@H](NC(=O)CCCc3cccs3)CC2)nc2ccccc12", "note": "[compound 746]", "values": [{"measurement": "class", "setting": "[2]", "result": "3 (Class 3 The value of percent of control at 10^−7 M was more than 60% or the value of IC50 was more than 200 nM.)"}]}, {"molecule": "COc1ccc2ccccc2c1CNC[C@H]1CC[C@@H](Nc2nccc(N(C)C)n2)CC1", "note": "[compound 1249]", "values": [{"measurement": "class", "setting": "[2]", "result": "1 (Class 1: The value of percent of control at 10^−7 M was less than 40% or the value of IC50 was less than 50 nM.)"}]}, {"molecule": "Cc1cc(N(C)C)nc(N[C@H]2CC[C@@H](C(=O)NCc3ccc(Br)cc3F)CC2)n1", "note": "[compound 2821, cis-N-(4-bromo-2-fluorobenzyl)-4-{[4-(dimethylamino)-6-methylpyrimidin-2-yl]amino}cyclohexanecarboxamide]", "values": [{"measurement": "class", "setting": "[1]", "result": "1 (Class 1: The value of percent of control at 10^−7 M was less than 40% or the value of IC50 was less than 50 nM.)"}]}, {"molecule": "CCOc1ccc(CNC[C@H]2CC[C@@H](Nc3nccc(N(C)C)n3)CC2)c(OCC)c1", "note": "[compound 1291]", "values": [{"measurement": "class", "setting": "[2]", "result": "2 (Class 2: The value of percent of control at 10^−7 M was from 40% to 60% or the value of IC′50 was from 50 nM to 200 nM.)"}]}, {"molecule": "CN(C)c1cc(N[C@H]2CC[C@@H](NC(=O)Nc3ccc(Cl)cc3C(F)(F)F)CC2)nc2ccccc12", "note": "[compound 2117]", "values": [{"measurement": "class", "setting": "[2]", "result": "3 (Class 3 The value of percent of control at 10^−7 M was more than 60% or the value of IC50 was more than 200 nM.)"}]}, {"molecule": "CN(C)c1cc(N[C@H]2CC[C@@H](NC(=O)CCc3ccccc3O)CC2)nc2ccccc12", "note": "[compound 679]", "values": [{"measurement": "class", "setting": "[2]", "result": "3 (Class 3 The value of percent of control at 10^−7 M was more than 60% or the value of IC50 was more than 200 nM.)"}]}, {"molecule": "CN(C)c1cc(N[C@H]2CC[C@@H](NC(=O)Cc3ccccc3)CC2)nc2ccccc12", "note": "[compound 45, N-(cis-4-{[4-(dimethylamino)quinolin-2-yl]amino}cyclohexyl)-2-phenlacetamide]", "values": [{"measurement": "class", "setting": "[5]", "result": "3 (Class 3 The value of percent of control at 10^−7 M was more than 60% or the value of IC50 was more than 200 nM.)"}]}, {"molecule": "CC(Oc1ccccc1)C(=O)NC[C@H]1CC[C@@H](Nc2nc3c(c(N(C)C)n2)CCCC3)CC1", "note": "(relative stereo) [compound 611]", "values": [{"measurement": "class", "setting": "[2]", "result": "3 (Class 3 The value of percent of control at 10^−7 M was more than 60% or the value of IC50 was more than 200 nM.)"}]}, {"molecule": "CN(C)c1cc(N[C@H]2CC[C@@H](NC(=O)Nc3ccc(Br)cc3Br)CC2)nc2ccccc12", "note": "[compound 2139]", "values": [{"measurement": "class", "setting": "[2]", "result": "3 (Class 3 The value of percent of control at 10^−7 M was more than 60% or the value of IC50 was more than 200 nM.)"}]}, {"molecule": "COc1ccc(CN[C@H]2CC[C@@H](Nc3cc(N(C)C)c4ccccc4n3)CC2)c(OC)c1OC", "note": "[compound 1095]", "values": [{"measurement": "class", "setting": "[4]", "result": "3 (Class 3 The value of percent of control at 10^−7 M was more than 60% or the value of IC50 was more than 200 nM.)"}]}, {"molecule": "CCC(C(=O)N[C@H]1CC[C@@H](Nc2nc3c(c(N(C)C)n2)CCCC3)CC1)c1ccccc1", "note": "(relative stereo) [compound 502]", "values": [{"measurement": "class", "setting": "[3]", "result": "3 (Class 3 The value of percent of control at 10^−7 M was more than 60% or the value of IC50 was more than 200 nM.)"}]}, {"molecule": "COc1cc(CN[C@H]2CC[C@@H](Nc3cc(N(C)C)c4ccccc4n3)CC2)cc(OC)c1OC", "note": "[compound 1099]", "values": [{"measurement": "class", "setting": "[4]", "result": "3 (Class 3 The value of percent of control at 10^−7 M was more than 60% or the value of IC50 was more than 200 nM.)"}]}, {"molecule": "CN(C)c1nc(N[C@H]2CC[C@@H](NC(=S)Nc3ccc(C(F)(F)F)cc3)CC2)nc2c1CCCC2", "note": "[compound 1989]", "values": [{"measurement": "class", "setting": "[5]", "result": "3 (Class 3 The value of percent of control at 10^−7 M was more than 60% or the value of IC50 was more than 200 nM.)"}]}, {"molecule": "CN(C)c1nc(N[C@H]2CC[C@@H](NC(=O)Cc3c(-c4ccccc4)[nH]c4ccccc34)CC2)nc2c1CCCC2", "note": "[compound 1005]", "values": [{"measurement": "class", "setting": "[4]", "result": "1 (Class 1: The value of percent of control at 10^−7 M was less than 40% or the value of IC50 was less than 50 nM.)"}]}, {"molecule": "Cc1cnc(N[C@H]2CC[C@@H](CNC(=O)c3ccc(Cl)cc3)CC2)nc1N(C)C", "note": "[compound 2710, 4-chloro-N-[(cis-4-{[4-(dimethylamino)-5-methylpyrimidin-2-yl]amino}cyclohexyl)methyl]benzamide]", "values": [{"measurement": "class", "setting": "[1]", "result": "2 (Class 2: The value of percent of control at 10^−7 M was from 40% to 60% or the value of IC′50 was from 50 nM to 200 nM.)"}]}, {"molecule": "COc1cc(OC)c(CNC[C@H]2CC[C@@H](Nc3cc(N(C)C)c4ccccc4n3)CC2)cc1Br", "note": "[compound 1144]", "values": [{"measurement": "class", "setting": "[4]", "result": "2 (Class 2: The value of percent of control at 10^−7 M was from 40% to 60% or the value of IC′50 was from 50 nM to 200 nM.)"}]}]}
